Entries after “also recorded” stand apart in the source; their conditions may differ.
How the values were obtained:
Format in all cases: cell-based, human
[1] = system: H9 hEB; assay: Voltage optical micromapping of contracting hEB (action potential duration); conditions: 20 μM isoproterenol, 4 hEB, mean±s.d., p≈0.01 paired t-test
Experimental: Cardiac markers and structural protein expression was assessed using immunofluorescence staining. […] To assess quality of hPSC-derived cardiomyocytes that were generated using this method and suitability for future applications such as cardiotoxicity testing, the electrophysiological properties were assessed via optical mapping. hEB were either mechanically dissected and plated onto fibronectin-coated glass coverslips for micromapping, or approximately 200 hEB were dissociated into single cells and plated in a 10 mm diameter area as a confluent monolayer for macromapping. hEB and monolayers were then stained with either voltage- or calcium-sensitive dye and optically mapped to visualize spontaneous activity and response to electrical field stimulation (FIG. 12A). […] To assess cardioactive drug responsiveness, 20 μM isoproterenol or 100 μM pinacidil was added to cardiomyocyte monolayers or hEB to test for beta-adrenergic stimulation response and the presence of functional KATP channels, respectively. […] Contracting hEB derived from the hiPSC line 6.2 were tested in the same manner and yielded similar results. […]

[2] = system: hESC-derived cardiomyocyte monolayer; assay: Voltage macromapping of cardiomyocyte monolayer (action potential duration); conditions: for effect on action potential: 20 μM isoproterenol or 100 μM pinacidil added to cardiomyocyte monolayers or hEB; for action potential duration: 0.67 Hz pacing, mean±s.d., 20 μM isoproterenol or 100 μM pinacidil, control 363±137 ms
Experimental: Cardiac markers and structural protein expression was assessed using immunofluorescence staining. […] To assess quality of hPSC-derived cardiomyocytes that were generated using this method and suitability for future applications such as cardiotoxicity testing, the electrophysiological properties were assessed via optical mapping. hEB were either mechanically dissected and plated onto fibronectin-coated glass coverslips for micromapping, or approximately 200 hEB were dissociated into single cells and plated in a 10 mm diameter area as a confluent monolayer for macromapping. hEB and monolayers were then stained with either voltage- or calcium-sensitive dye and optically mapped to visualize spontaneous activity and response to electrical field stimulation (FIG. 12A). […] To assess cardioactive drug responsiveness, 20 μM isoproterenol or 100 μM pinacidil was added to cardiomyocyte monolayers or hEB to test for beta-adrenergic stimulation response and the presence of functional KATP channels, respectively. […] Contracting hEB derived from the hiPSC line 6.2 were tested in the same manner and yielded similar results.
For optical micromapping (Weinberg et al., Methods Mol Biol 660, 215-237 (2010), contracting hEB were mechanically dissected, plated on fibronectin-coated glass coverslips and given at least 5 days to attach. hEB were then stained with either 10 μM Rhod-2-AM calcium dye for 20 minutes or 10 μM di-4-ANEPPS voltage dye for 5 minutes. After several rinses with Tyrode's solution (135 mM NaCl, 5.4 mM KCl, 1.8 mM CaCl2, 1 mM MgCl2, 0.33 mM NaH2PO4, 5 mM HEPES, and 5 mM glucose), hEB were incubated with 30 μM blebbistatin for 15 minutes to inhibit excitation-contraction coupling and subsequently prevent signal distortion due to motion artifact. The absence of hEB contraction was confirmed visually. hEB were then excited at 530 nm to visualize spontaneous activity and response to electrical field stimulation. Imaging of transmembrane potential (Vm) or intracellular calcium (Cai) was performed using an Andor iXon+860 electron multiplying charged coupled device (EMCCD) camera (128×128 pixels) at 490 Hz sampling rate. […] Macromapping of hESC-CM monolayers was performed using contact fluorescent imaging, in which maps of Vm were recorded by placing the monolayer directly on top of a bundle of 253 optical fibers 1 mm in diameter, arranged in a tightly packed, 17-mmdiameter hexagonal array. […] To analyze data, the individual recorded signals recorded were spatially filtered using a 5×5 box filter, temporally filtered using a 10 point median filter, baseline-corrected by subtraction of a fitted 3rd order polynomial, and range-normalized. […] Uniformity of APD was assessed by the coefficient of variation. […]

[3] = system: H9 hESC; assay: Beating hEB assay (contracting hEB after forced aggregation cardiac differentiation); conditions: for effect on cardiac differentiation, phase 2 medium: supplement in d0-d2 medium; for effect on cardiac differentiation, phase 2 medium / effect on cardiac differentiation, phase 3 medium: contracting hEB d9; for effect on cardiac differentiation, phase 3 medium: supplement in d2-d4 medium; for effect on cardiac differentiation, phase 4 medium: supplement in d4 onwards medium
From the text: The cardiac differentiation protocol was divided into four distinct phases for optimization (FIG. 3A): phase 1: uniform undifferentiated growth; phase 2: hEB formation/mesoderm induction; phase 3: hEB cardiac specification; phase 4: contracting cardiomyocyte development. […] After an initial round of optimizations had been completed, optimizations was repeated a second time to account for the new media formulations and then a third time to optimize the final media formulation. In some cases fourth and fifth repeats were performed to improve the statistical power of the results. For each variable tested, the bell-curve distribution of dose-response was determined. Results shown are averages of the 2nd-5th replicates (FIG. 2B).
For forced aggregation hEB differentiations, confluent hESC or hiPSC which had been grown on a commercially available extracellular matrix, Geltrex (Invitrogen) as monolayers for 3 to 13 passages were passaged with TrypLE Select and seeded at 2.5×10^6 per T25 flask. After 24 hours growth, cells were washed with PBS and treated with room temperature TrypLE Select for 1 minute at 37° C. Cells were seeded at 5000 cells per well in 96-well V-bottom uncoated plates (249952, NUNC) in 100 μL per well RPMI+PVA medium consisting of RPMI Media 1640 (with L-Glutamine), 4 mg mL-1 polyvinyl alcohol (P8136, Sigma, dissolved in RPMI at 4° C. for at least 72 hours, mixing by inversion every day), 1% chemically defined lipid concentrate, 10 μg mL-1 recombinant human insulin (Sigma), 400 μM 1-thioglycerol (Sigma), 25 ng mL-1 BMP4 and 5 ng mL-1 FGF2 (both from R&D systems), 1 μM Y-27632 (Calbiochem). This medium is not stable and was made fresh for each experiment. After 48 hours (on day 2) medium was aspirated with a Costar 8-channel aspirator (Corning) and replaced with RPMI+FBS medium consisting RPMI Media 1640, 20% characterized FBS (Hyclone), 400 μM 1-thioglycerol. On day 4 media was changed to RPMI+PVA without growth factors and hEB were transferred to 96-well U-bottom tissue culture treated plates (650180, Greiner Bio-One). Media was changed on d7 and every 3 days afterwards. hEB were visually assessed for contraction on d9 using a Nikon Eclipse Ti inverted tissue culture microscope with a TOKAI-HIT heated stage (Nikon). Images were captured using NIS-Elements (Nikon). […] For traditional cardiac differentiations using FBS, undirected differentiation was performed as previously described (Kehat et al. J Clin Invest 108, 407-414 (2001)): briefly, confluent H9 hESC grown as colonies on MEF were treated with collagenase IV for 5 minutes at 37° C. then washed from the plate using a 5 mL pipette. Cell clusters were then transferred to Petri dishes in 20% FBS medium for 7 days. hEB were then transferred to gelatin coated tissue culture plates. Media was changed every 3 days.
One single replicate consists of one 96-well plate. Repeat replicates were performed 1-4 months apart using a different vial of cells. Each experiment was repeated at least 3 times representing at least 288 hEB. Total number of hEB assessed in this work exceeds 80,000. Wells in which no hEB was detected due to pipeting error were excluded and accounted for approximately 1-5% of wells. P-values were established using unpaired two-tailed Student's t-test.

Molecule	effect on cardiac differentiation, phase 2 medium [3]	effect on cardiac differentiation, phase 3 medium [3]	also measured
CC(C)NCC(O)c1ccc(O)c(O)c1 (stereo not drawn) [isoproterenol]	–	–	shortening of the mean APD [1]: 23 ± 8 ms; effect on action potential [2]: shortening of the action potential; action potential duration [2]: 262 ± 107 ms
TGFB	none were found to have the same potency as BMP4	–	–
CC(N/C(=N\C#N)Nc1ccncc1)C(C)(C)C (stereo not drawn) [pinacidil]	–	–	effect on action potential [2]: shortening of the action potential; action potential duration [2]: 257 ± 56 ms
O=C1O[C@H]([C@@H](O)CO)C(O)=C1O [L-ascorbic acid]	either did not further enhance differentiation or had negative effects on differentiation	Neither transferrin, L-ascorbic acid, lipids or NEAA enhanced this phase of differentiation	–
NC(=O)CC[C@H](N)C(=O)O [L-glutamine]	either did not further enhance differentiation or had negative effects on differentiation	did not enhance cardiac differentiation	–
IGF1: growth factor titrated between 1-100 ng mL-1	none were found to have the same potency as BMP4	–	–
OCC(O)CS (stereo not drawn) [1-thioglycerol]	resulted in high efficiency cardiac differentiation	most suitable antioxidant for this phase	effect on cardiac differentiation, phase 4 medium [3]: essential for this d4+ phase
C[C@@H](N)[C@H]1CC[C@H](C(=O)Nc2ccncc2)CC1 [Y-27632, reference compound]	further improved reproducibility and cardiac differentiation	–	–
insulin: recombinant human insulin (Sigma)	–	completely abrogated cardiac specification; also recorded: completely ablated cardiac differentiation	effect on cardiac differentiation, phase 4 medium [3]: did not effect this d4+ phase; effect on cardiac differentiation, xeno- and serum-free d2-d4 medium ([3]; supplement in serum-free d2-d4 medium): inhibited cardiac differentiation
WNT3A	none were found to have the same potency as BMP4	–	–
IGF2: growth factor titrated between 1-100 ng mL-1	none were found to have the same potency as BMP4	–	–
FGF2: fibroblast growth factor 2	–	did not further enhance this phase; also recorded: did not enhance cardiac differentiation	–
